Test: Antiinflammatory activity in human THP1 cells assessed as inhibition of LPS-induced TNF-alpha production preincubated for 3 hrs followed by LPS-challenge measured after overnight incubation by sandwich ELISA
Type: functional, cell-based
Settings: THP-1

Row | IC50 | Compound
1 | 48.1 µM | O=C1C[C@@H](c2ccc(O)c(O[C@@H]3O[C@H](CO)[C@@H](O)[C@H](O)[C@H]3O)c2)Oc2c1c(O)c([C@@H](CCc1ccc(O)cc1)c1ccc(O)cc1O[C@@H]1O[C@H](CO)[C@@H](O)[C@H](O)[C@H]1O)c(O)c2[C@@H](CCc1ccc(O)cc1)c1ccc(O)cc1O[C@@H]1O[C@H](CO)[C@@H](O)[C@H](O)[C@H]1O
2 | 20 µM | O=C1C[C@@H](c2ccc(O)c(O)c2)Oc2c1c(O)c([C@@H](CCc1ccc(O)cc1)c1ccc(O)cc1O[C@@H]1O[C@H](CO)[C@@H](O)[C@H](O)[C@H]1O)c(O)c2[C@@H](CCc1ccc(O)cc1)c1ccc(O)cc1O[C@@H]1O[C@H](CO)[C@@H](O)[C@H](O)[C@H]1O

— ChEMBL document CHEMBL3232940, “TNF-α inhibition elicited by mansoins A and B, heterotrimeric flavonoids isolated from Mansoa hirsuta” (J Nat Prod, 2014)
